Assay results: US20030152512A1, “Imaging thrombus with glycoprotein llb/llla antagonists” (priority 2001, published 2003)
Non-standard residues stand in square brackets, D forms with d. Residues, ends and D or L forms follow the SMILES beside them. *: point of attachment. X1 = O=C(c1ccc(NN=Cc2ccccc2S(=O)(=O)O)nc1)*; NMeR = CN[C@@H](CCCNC(=N)N)C(=O)O; HYNIC = NNc1ccc(C(=O)*)cn1; 3Amb = NCc1cccc(C(=O)O)c1

What was measured:
[1] = Blood clearance in canine deep vein thrombosis (DVT) model; settings: both, mongrel, dog, iv
Description: (§1) Canine Deep Vein Thrombosis Model: This model incorporates the triad of events (hypercoagulatible state, period of stasis, low shear environment) essential for the formation of a venous fibrin-rich actively growing thrombus. The procedure was as follows: Adult mongrel dogs of either sex (9-13 kg) were anesthetized with pentobarbital sodium (35 mg/kg,i.v.) and ventilated with room air via an endotracheal tube (12 strokes/min, 25 ml/kg). For arterial pressure determination, the right femoral artery was cannulated with a saline-filled polyethylene catheter (PE-240) and connected to a Statham pressure transducer (P23ID; Oxnard, Calif.). Mean arterial blood pressure was determined via damping the pulsatile pressure signal. Heart rate was monitored using a cardiotachometer (Biotach, Grass Quincy, Mass.) triggered from a lead II electrocardiogram generated by limb leads. The right femoral vein was cannulated (PE-240) for drug administration. A 5 cm segment of both jugular veins was isolated, freed from fascia and circumscribed with silk suture. A microthermister probe was placed on the vessel which serves as an indirect measure of venous flow. A balloon embolectomy catheter was utilized to induce the 15 min period of stasis during which time a hypercoagulatible state was then induced using 5 U thrombin (American Diagnosticia, Greenwich Conn.) administered into the occluded segment. Fifteen minutes later, flow was reestablished by deflating the balloon. The radiopharmaceutical was infused during the first 5 minutes of reflow and the rate of incorporation monitored using gamma scintigraphy.

venous thrombus = test: Thrombus imaging in canine deep vein thrombosis (DVT) model, gamma scintigraphy (camera ROI); format: in vivo, dog; settings: for efficacy as thrombus imaging agent (in words): dog DVT model; for Thrombus to Blood Ratio in DVT Model (Camera ROI) / Thrombus to Muscle Ratio in DVT Model (Camera ROI): dog
Description: as §1

Platelet GPIIb/IIIa = biological target: T1, Platelet GPIIb/IIIa (Canis lupus familiaris, UniProt A0A8I3N5G5+A0A8I3PMU9); test: Platelet GPIIb/IIIa binding assay (inhibition of 125I-fibrinogen binding to activated platelets); settings: reagents (compounds of Examples 1-3); activated canine platelets
T1 construct: from tissue
T1 sequence (A0A8I3N5G5 1-1047): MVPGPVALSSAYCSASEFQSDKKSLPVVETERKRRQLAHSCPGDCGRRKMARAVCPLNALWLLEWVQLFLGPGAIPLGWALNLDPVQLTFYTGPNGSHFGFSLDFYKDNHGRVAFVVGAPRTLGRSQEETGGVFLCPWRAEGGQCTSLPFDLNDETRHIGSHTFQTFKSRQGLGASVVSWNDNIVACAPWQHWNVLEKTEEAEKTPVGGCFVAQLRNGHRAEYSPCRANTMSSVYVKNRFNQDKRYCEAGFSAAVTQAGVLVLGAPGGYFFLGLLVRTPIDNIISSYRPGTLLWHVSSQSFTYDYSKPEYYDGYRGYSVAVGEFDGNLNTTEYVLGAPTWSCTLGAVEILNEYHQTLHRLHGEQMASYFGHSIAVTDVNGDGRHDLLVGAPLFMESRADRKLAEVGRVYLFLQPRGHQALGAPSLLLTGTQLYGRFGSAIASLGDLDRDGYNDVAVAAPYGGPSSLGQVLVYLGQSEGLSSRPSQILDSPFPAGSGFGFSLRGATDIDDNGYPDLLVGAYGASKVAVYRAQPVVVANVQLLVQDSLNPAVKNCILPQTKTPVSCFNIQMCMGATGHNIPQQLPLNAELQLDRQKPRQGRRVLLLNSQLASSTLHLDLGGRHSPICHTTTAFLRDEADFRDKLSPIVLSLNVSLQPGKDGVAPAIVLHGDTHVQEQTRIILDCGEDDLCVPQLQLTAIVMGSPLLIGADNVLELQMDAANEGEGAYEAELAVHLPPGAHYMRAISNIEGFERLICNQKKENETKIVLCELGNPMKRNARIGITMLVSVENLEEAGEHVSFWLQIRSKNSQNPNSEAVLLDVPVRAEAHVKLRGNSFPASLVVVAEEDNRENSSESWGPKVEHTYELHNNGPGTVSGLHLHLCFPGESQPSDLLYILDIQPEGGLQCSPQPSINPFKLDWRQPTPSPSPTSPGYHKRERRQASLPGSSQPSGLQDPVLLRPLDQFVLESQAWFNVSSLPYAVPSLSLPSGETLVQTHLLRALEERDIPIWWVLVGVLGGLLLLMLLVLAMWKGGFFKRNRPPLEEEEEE
T1 sequence (A0A8I3PMU9 1-919): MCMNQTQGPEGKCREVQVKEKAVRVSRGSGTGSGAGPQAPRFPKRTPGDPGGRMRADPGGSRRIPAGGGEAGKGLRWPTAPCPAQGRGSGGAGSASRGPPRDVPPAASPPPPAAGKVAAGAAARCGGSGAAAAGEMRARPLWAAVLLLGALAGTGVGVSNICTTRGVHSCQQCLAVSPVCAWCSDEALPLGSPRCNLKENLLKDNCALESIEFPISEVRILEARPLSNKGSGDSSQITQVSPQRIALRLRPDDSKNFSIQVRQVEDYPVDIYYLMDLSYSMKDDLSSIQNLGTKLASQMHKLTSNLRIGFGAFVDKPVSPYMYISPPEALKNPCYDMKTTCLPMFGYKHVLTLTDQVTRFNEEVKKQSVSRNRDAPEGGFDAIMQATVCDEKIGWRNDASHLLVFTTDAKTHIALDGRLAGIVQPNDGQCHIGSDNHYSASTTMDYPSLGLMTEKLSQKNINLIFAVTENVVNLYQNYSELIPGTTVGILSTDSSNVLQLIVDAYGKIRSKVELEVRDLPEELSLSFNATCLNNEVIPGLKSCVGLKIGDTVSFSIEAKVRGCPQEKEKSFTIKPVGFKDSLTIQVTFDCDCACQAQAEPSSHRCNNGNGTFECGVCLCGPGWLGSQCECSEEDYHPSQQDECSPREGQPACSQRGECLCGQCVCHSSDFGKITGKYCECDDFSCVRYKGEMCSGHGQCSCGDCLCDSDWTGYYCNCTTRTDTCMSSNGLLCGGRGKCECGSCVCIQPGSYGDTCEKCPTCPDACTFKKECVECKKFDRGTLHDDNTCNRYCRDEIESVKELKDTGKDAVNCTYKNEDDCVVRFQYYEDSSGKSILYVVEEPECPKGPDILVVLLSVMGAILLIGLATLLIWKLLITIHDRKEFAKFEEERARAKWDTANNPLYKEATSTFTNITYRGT
Description: Platelet GPIIb/IIIa Binding Assay:
During isolation, platelets were rendered quiescent by the addition of aspirin and when appropriate, primed by the addition of PGE 1. Experimentation was completed in a microtiter format with final concentrations between 1 and 2×10^7 platelets/well. Platelets were activated by the addition of CaCl2 (2 mM) and thrombin (0.2 U/mL) while non-activated platelets received buffer. Hirudin (0.5 U/mL) was added to stop the activation reaction.

Row | Compound | tissue uptake at 0 h [1] [%ID/g] | tissue uptake at 0.25 h [1] [%ID/g] | tissue uptake at 0.5 h [1] [%ID/g] | tissue uptake at 1 h [1] [%ID/g] | tissue uptake at 1.5 h [1] [%ID/g] | tissue uptake at 2 h [1] [%ID/g] | efficacy as thrombus imaging agent (in words) (venous thrombus) | Thrombus to Blood Ratio in DVT Model (Camera ROI) (venous thrombus; time 30 min) | Thrombus to Muscle Ratio in DVT Model (Camera ROI) (venous thrombus; time 30 min) | Thrombus to Blood Ratio in DVT Model (Camera ROI) (venous thrombus; time 120 min) | Thrombus to Muscle Ratio in DVT Model (Camera ROI) (venous thrombus; time 120 min) | IC50 (Platelet GPIIb/IIIa) [nM] | also measured
1 | CC(C)[C@H]1NC(=O)c2cc(cc(CNC(=O)[C@H](CC(=O)O)NC(=O)c3ccc(NN)nc3)c2)CNC(=O)[C@H](CC(=O)O)NC(=O)CNC(=O)[C@H](CCCNC(=N)N)N(C)C1=O (99mTc complex, metal not drawn) [Example 4] | 0.141 | 0.07 | 0.067 | 0.053 | 0.046 | 0.045 | effective thrombus imaging agents | 2.29 ± 0.60 | 4.31 ± 1.33 | 3.36 ± 0.99 | 4.70 ± 1.05 | – | Thrombus to Blood Ratio in DVT Model (Camera ROI) (venous thrombus; time 15 min, listed as Ex. 4): 2.00 ± 0.25; Thrombus to Muscle Ratio in DVT Model (Camera ROI) (venous thrombus; time 15 min, listed as Ex. 4): 3.18 ± 0.45; Thrombus to Blood Ratio in DVT Model (Camera ROI) (venous thrombus; time 60 min, listed as Ex. 4): 2.86 ± 0.31; Thrombus to Muscle Ratio in DVT Model (Camera ROI) (venous thrombus; time 60 min, listed as Ex. 4): 4.31 ± 0.79
2 | CN1C(=O)[C@@H](CCCCNC(=O)c2ccc(NN=Cc3ccccc3S(=O)(=O)O)nc2)NC(=O)c2cccc(c2)CNC(=O)[C@H](CC(=O)O)NC(=O)CNC(=O)[C@@H]1CCCNC(=N)N [Example 2, cyclo{N-Me-Arg-Gly-Asp-Mamb-D-Lys([2-[[[5-[carbonyl]-2-pyridinyl]hydrazono]methyl]-benzenesulfonic acid])}] (cyclo([NMeR]GD[3Amb][dK](X1))) | – | – | – | – | – | – | – | – | – | – | – | 14 | –
3 | CC(C)[C@H]1NC(=O)c2cc(cc(CNC(=O)[C@H](CC(=O)O)NC(=O)c3ccc(N/N=C/c4ccccc4S(=O)(=O)O)nc3)c2)CNC(=O)[C@H](CC(=O)O)NC(=O)CNC(=O)[C@H](CCCNC(=N)N)N(C)C1=O [Example 1] | – | – | – | – | – | – | – | – | – | – | – | 7 | –
4 | N=C(N)c1ccc(C2=NOC(CC(=O)NCC(NC(=O)c3ccc(NN=Cc4ccccc4S(=O)(=O)O)nc3)C(=O)O)C2)cc1 (stereo not drawn) [Example 3] | – | – | – | – | – | – | – | – | – | – | – | 66 | –
5 | CN1C(=O)[C@@H](CCCCNC(=O)c2ccc(NN)nc2)NC(=O)c2cccc(c2)CNC(=O)[C@H](CC(=O)O)NC(=O)CNC(=O)[C@@H]1CCCNC(=N)N (99mTc complex, metal not drawn) [Example 5] (cyclo([NMeR]GD[3Amb][dK](HYNIC))) | 0.11 ± 0.01 | 0.039 ± 0.003 | 0.027 ± 0.003 | 0.021 ± 0.002 | 0.018 ± 0.002 | 0.017 ± 0.002 | effective thrombus imaging agents | 1.86 ± 0.23 | 2.27 ± 0.29 | 2.57 ± 0.25 | 3.34 ± 0.18 | – | Thrombus to Blood Ratio in DVT Model (Camera ROI) (venous thrombus; time 15 min, listed as Ex. 5): 1.64 ± 0.21; Thrombus to Muscle Ratio in DVT Model (Camera ROI) (venous thrombus; time 15 min, listed as Ex. 5): 2.12 ± 0.29; Thrombus to Blood Ratio in DVT Model (Camera ROI) (venous thrombus; time 60 min, listed as Ex. 5): 2.13 ± 0.23; Thrombus to Muscle Ratio in DVT Model (Camera ROI) (venous thrombus; time 60 min, listed as Ex. 5): 2.66 ± 0.29
6 | CC(C)[C@H]1NC(=O)c2cc(cc(NC(=O)CCCCCNC(=O)c3ccc(NN)nc3)c2)CNC(=O)[C@H](CC(=O)O)NC(=O)CNC(=O)[C@H](CCCNC(=N)N)N(C)C1=O [Example 7, ^99mTc(cyclo(D-Val-NmeArg-Gly-Asp-Mamb(hydrazino-nicotinyl-5-Aca)))(tricine)(TPPTS), metal not drawn] | 0.119 ± 0.003 | 0.08 ± 0.003 | 0.066 ± 0.004 | 0.059 ± 0.001 | 0.05 ± 0.002 | 0.049 ± 0.001 | effective thrombus imaging agents | 3.10 ± 0.42 | 4.80 ± 0.38 | 6.60 ± 1.42 | 9.90 ± 2.64 | – | Thrombus to Blood Ratio in DVT Model (Camera ROI) (venous thrombus; time 15 min, listed as Ex. 7): 2.10 ± 0.10; Thrombus to Muscle Ratio in DVT Model (Camera ROI) (venous thrombus; time 15 min, listed as Ex. 7): 3.40 ± 0.30; Thrombus to Blood Ratio in DVT Model (Camera ROI) (venous thrombus; time 60 min, listed as Ex. 7): 5.30 ± 0.91; Thrombus to Muscle Ratio in DVT Model (Camera ROI) (venous thrombus; time 60 min, listed as Ex. 7): 7.00 ± 1.40
